ChEMBL document CHEMBL3881525, “Analogs of dehydrophenylahistins and their therapeutic use” (2007)
Values after ≈ are worked out from the molar mass of the structure shown. Active and inactive are the calls of the source. The rule behind the calls is not given here.

What was measured:
[1] = Cytotoxicity against human HT-29 cells assessed as reduction in cell viability measured after 48 hrs by resazurin dye-based fluorometric analysis; type: functional; settings: Homo sapiens, HT-29, 48 h
[2] = Antiproliferative activity against human mitoxantrone-sensitive HL60 cells; type: functional, cell-based; settings: HL-60
[3] = test system: Jurkat; experiment: Induction of apoptosis in human Jurkat cells assessed as PARP cleavage at 100 nM measured after 10 hrs by Western blotting; type: functional, cell-based
[4] = test system: MDA-MB-231; experiment: Antitumor activity against human MDA-MB-231 cells xenografted in nude mouse assessed as tumor growth inhibition at 7.5 mg/kg, ip administered thrice per day for 5 days in presence of paclitaxel relative to control; type: functional, organism-based
[5] = test system: Trichophyton rubrum; experiment: Fungicidal activity against Trichophyton rubrum isolate 2 measured after 48 hrs by broth dilution method; type: functional; settings: isolate 2, 48 h
[6] = test system: Mus musculus; experiment: Antivascular activity against mouse N202 tumor spheroids expressing H2B-GFP allografted in mouse assessed as inhibition of tumor-induced central vasculature at 5 mg/kg, iv administered on day 12 as infusion for 2 mins measured on day 15 by fluorescence video microscopy; type: functional, organism-based
[7] = Toxicity in mouse allografted with mouse N202 tumor spheroids expressing H2B-GFP at 10 mg/kg, iv administered on day 13 as infusion for 5 mins; type: organism-based; settings: in vivo
[8] = Toxicity in mouse allografted with mouse N202 tumor spheroids expressing H2B-GFP assessed as effect on tumor surrounding vasculature in the dorsal skin fold at 10 mg/kg, iv administered on day 12 as infusion for 5 mins measured on day 15; type: organism-based; settings: in vivo
[9] = test system: HUVEC; experiment: Induction of monolayer permeability in HUVEC measured up to 15 mins; type: functional, cell-based; settings: Homo sapiens
[10] = test system: Rattus norvegicus; experiment: Effect on blood flow in rat brain at 15 mg/kg, ip measured after 1 hr by [125I]iodoantipyrine based method relative to vehicle control; type: ADME, organism-based; settings: in vivo
[11] = test system: Rattus norvegicus; experiment: Effect on blood flow in rat kidney at 15 mg/kg, ip measured after 1 hr by [125I]iodoantipyrine based method relative to vehicle control; type: ADME, organism-based; settings: in vivo
[12] = biological target: T1, Tubulin (Homo sapiens) (UniProt P68371+Q9H4B7+P0DPH7+P68366+Q13509+Q71U36+P04350+Q3ZCM7+P07437+P68363+Q9BQE3+Q6PEY2+Q13885+Q9BVA1+Q9BUF5); experiment: Induction of microtubule instability in human MCF7 cells assessed as mean growth rate at IC50 for mitotic block measured after 20 hrs by immunofluorescence analysis; type: cell-based
[13] = biological target: T1, Tubulin (Homo sapiens); experiment: Induction of microtubule instability in human MCF7 cells assessed as time spent for attenuation at IC50 for mitotic block measured after 20 hrs by immunofluorescence analysis; type: cell-based

CC(C)(C)c1[nH]cnc1/C=c1\[nH]c(=O)/c(=C/c2ccccc2)[nH]c1=O [PLINABULIN]
EC50 [1]: 9.8 to 48 nM
EC50 [2]: 6.4 nM
Activity [3]: Active
TGI [4]: Active
MFC [5]: 0.125 µg/mL (≈ 0.372 µM)
inhibition [6]: Active
Activity [7]: Non-Toxic
Activity [8]: Non-Toxic
Activity [9]: Dose-dependent effect
Activity [10]: Non-Toxic
Activity [11]: Non-Toxic
Activity [12]: 10.6 um/min
TIME [13]: 0.0102 h
